The results in this text go back to patent US20250230193A1, “CYCLIC COMPOUND HAVING SELECTIVE KRAS INHIBITORY EFFECT ON HRAS AND NRAS” (CHUGAI SEIYAKU KABUSHIKI KAISHA, priority 2022, published 2025).

In test [1] the target is GDP-bound HRAS wild-type protein (Homo sapiens, UniProt P01112). Put plainly: Binding to HRAS by surface plasmon resonance (SPR), Single Cycle Kinetics. As to conditions: KD ratio HRAS/KRAS, SPR.
The target in test [2] is GDP-bound NRAS wild-type protein (Homo sapiens, UniProt P01111). Put plainly: Binding to NRAS by surface plasmon resonance (SPR), Single Cycle Kinetics. To be noted: KD ratio NRAS/KRAS, SPR. A general note: SPR reads the build-up and loss of mass on a sensor chip optically.
Sequence of GDP-bound NRAS wild-type protein (P01111 whole entry): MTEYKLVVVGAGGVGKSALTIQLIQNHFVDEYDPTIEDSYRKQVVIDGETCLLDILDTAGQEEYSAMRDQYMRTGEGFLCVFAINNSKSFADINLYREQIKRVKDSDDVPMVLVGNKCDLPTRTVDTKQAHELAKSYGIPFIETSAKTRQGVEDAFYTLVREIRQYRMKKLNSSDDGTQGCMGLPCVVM

*1 amine or outer side, *2 acyl side, *3 side chain or, on linkers, in order; H or OH if unused. Where a SMILES comes first, the peptide text is derived from it. Bridges are numbered along the chain shown (N, C = ends). [ ]: non-standard residue; d: D form. The star is where a group is joined. hPhe(3-Cl-4-CF3) = N[C@@H](CCc1ccc(C(F)(F)F)c(Cl)c1)C(=O)O; X39 = Cc1ccc(C[C@@H](C(=O)[*:2])N(CC(C)C)[*:1])cc1; X49 = Cc1ccc(C[C@@H](C(=O)[*:2])N(CC2CC2)[*:1])cc1; X19 = CCCCN([C@@H](Cc1ccc(C)cc1)C(=O)[*:2])[*:1]; NPrPhe(4-Me) = CCCN[C@@H](Cc1ccc(C)cc1)C(=O)O; NEtPhe(4-Me) = CCN[C@@H](Cc1ccc(C)cc1)C(=O)O; NMeGly(cPent) = CN[C@H](C(=O)O)C1CCCC1; Hyp = O=C(O)[C@@H]1C[C@@H](O)CN1; NMeD = CN[C@@H](CC(=O)O)C(=O)O; NMeL = CN[C@@H](CC(C)C)C(=O)O; Morpholide = C1CN(*)CCO1; NMeA = CN[C@@H](C)C(=O)O; Ac5c = NC1(C(=O)O)CCCC1; Aze = O=C(O)[C@@H]1CCN1; NEtG = CCNCC(=O)O; X45 = C1CCC(*)OC1; Sar = CNCC(=O)O

Sequence of GDP-bound HRAS wild-type protein (P01112 whole entry): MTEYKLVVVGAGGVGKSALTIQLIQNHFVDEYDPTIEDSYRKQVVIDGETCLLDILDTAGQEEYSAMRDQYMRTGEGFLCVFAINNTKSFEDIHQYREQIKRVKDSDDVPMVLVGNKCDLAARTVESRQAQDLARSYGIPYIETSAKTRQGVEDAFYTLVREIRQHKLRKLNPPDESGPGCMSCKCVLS

Turning to `CCCCN1C(=O)CN(C)C(=O)CN(C)C(=O)[C@H]([C@@H](C)CC)NC(=O)[C@H](CC(C)C)N(C)C(=O)C[C@@H](C(=O)N2CCOCC2)N(C)C(=O)[C@H](C2CCCC2)N(C)C(=O)C2(CCCC2)NC(=O)[C@@H]2CCCN2C(=O)[C@H](CCc2ccc(C(F)(F)F)c(Cl)c2)NC(=O)CN(C)C(=O)[C@@H]1Cc1ccc(C)cc1` [PP0062] ([NMeL]I[Sar][Sar][X19][Sar][hPhe(3-Cl-4-CF3)]P[Ac5c][NMeGly(cPent)][NMeD]-Morpholide; lactam N-11), in test [1], the “HRAS/KRAS (ratio of KD for GDP-bound HRAS wild-type to KD for KRAS)” value is “C (A compound having a KD ratio of 0.1 or more and less than 3 is denoted as C)”. Moreover, the “NRAS/KRAS (ratio of KD for GDP-bound NRAS wild-type to KD for KRAS)” value in test [2] is “C (A compound having a KD ratio of 0.1 or more and less than 3 is denoted as C)”.
For the molecule `CC[C@H](C)[C@@H]1NC(=O)[C@H](CC(C)C)N(C)C(=O)C[C@@H](C(=O)N2CCOCC2)N(C)C(=O)[C@H](C2CCCC2)N(C)C(=O)C2(CCCC2)NC(=O)[C@@H]2CCCN2C(=O)[C@H](CCc2ccc(C(F)(F)F)c(Cl)c2)NC(=O)CN(C)C(=O)[C@H](Cc2ccc(C)cc2)N(CC(C)C)C(=O)CN(C)C(=O)CN(C)C1=O` [PP0063] ([NMeL]I[Sar][Sar][X39][Sar][hPhe(3-Cl-4-CF3)]P[Ac5c][NMeGly(cPent)][NMeD]-Morpholide; lactam N-11), in test [1], the “HRAS/KRAS (ratio of KD for GDP-bound HRAS wild-type to KD for KRAS)” value was “C (A compound having a KD ratio of 0.1 or more and less than 3 is denoted as C)”. Also, in test [2], the “NRAS/KRAS (ratio of KD for GDP-bound NRAS wild-type to KD for KRAS)” value is “C (A compound having a KD ratio of 0.1 or more and less than 3 is denoted as C)”.
Turning to `CC[C@H](C)[C@@H]1NC(=O)[C@H](CC(C)C)N(C)C(=O)C[C@@H](C(=O)N2CCOCC2)N(C)C(=O)[C@H](C2CCCC2)N(C)C(=O)C2(CCCC2)NC(=O)[C@@H]2CCCN2C(=O)[C@H](CCc2ccc(C(F)(F)F)c(Cl)c2)NC(=O)CN(C)C(=O)[C@H](Cc2ccc(C)cc2)N(CC2CC2)C(=O)CN(C)C(=O)CN(C)C1=O` [PP0064] ([NMeL]I[Sar][Sar][X49][Sar][hPhe(3-Cl-4-CF3)]P[Ac5c][NMeGly(cPent)][NMeD]-Morpholide; lactam N-11), in test [1], the “HRAS/KRAS (ratio of KD for GDP-bound HRAS wild-type to KD for KRAS)” value was “C (A compound having a KD ratio of 0.1 or more and less than 3 is denoted as C)”. Also, in test [2], the “NRAS/KRAS (ratio of KD for GDP-bound NRAS wild-type to KD for KRAS)” value was “C (A compound having a KD ratio of 0.1 or more and less than 3 is denoted as C)”.
With `CCCN1C(=O)CN(CC)C(=O)CN(C)C(=O)[C@H]([C@@H](C)CC)NC(=O)[C@H](CC(C)C)N(C)C(=O)C[C@@H](C(=O)N2CCOCC2)N(C)C(=O)[C@H](C2CCCC2)N(C)C(=O)C2(CCCC2)NC(=O)[C@@H]2CCCN2C(=O)[C@H](CCc2ccc(C(F)(F)F)c(Cl)c2)NC(=O)CN(C)C(=O)[C@@H]1Cc1ccc(C)cc1` [PP0065] ([NMeL]I[Sar][NEtG][NPrPhe(4-Me)][Sar][hPhe(3-Cl-4-CF3)]P[Ac5c][NMeGly(cPent)][NMeD]-Morpholide; lactam N-11), the “HRAS/KRAS (ratio of KD for GDP-bound HRAS wild-type to KD for KRAS)” value in test [1] was “C (A compound having a KD ratio of 0.1 or more and less than 3 is denoted as C)”. In test [2], the “NRAS/KRAS (ratio of KD for GDP-bound NRAS wild-type to KD for KRAS)” value was “C (A compound having a KD ratio of 0.1 or more and less than 3 is denoted as C)”.
Take `CCCN1C(=O)CN(C)C(=O)CN(C)C(=O)[C@H]([C@@H](C)CC)NC(=O)[C@H](CC(C)C)N(C)C(=O)C[C@@H](C(=O)N2CCOCC2)N(C)C(=O)[C@H](C2CCCC2)N(C)C(=O)C2(CCCC2)NC(=O)[C@@H]2CCCN2C(=O)[C@H](CCc2ccc(C(F)(F)F)c(Cl)c2)NC(=O)CN(CC)C(=O)[C@@H]1Cc1ccc(C)cc1` [PP0066] ([NMeL]I[Sar][Sar][NPrPhe(4-Me)][NEtG][hPhe(3-Cl-4-CF3)]P[Ac5c][NMeGly(cPent)][NMeD]-Morpholide; lactam N-11): the “HRAS/KRAS (ratio of KD for GDP-bound HRAS wild-type to KD for KRAS)” value in test [1] was “C (A compound having a KD ratio of 0.1 or more and less than 3 is denoted as C)”. Further, the “NRAS/KRAS (ratio of KD for GDP-bound NRAS wild-type to KD for KRAS)” value in test [2] was “B (a compound having 3 or more and less than 10 is denoted as B)”.
On to `CC[C@H](C)[C@@H]1NC(=O)[C@H](CC(C)C)N(C)C(=O)C[C@@H](C(=O)N2CCOCC2)N(C)C(=O)[C@H](C2CCCC2)N(C)C(=O)C2(CCCC2)NC(=O)[C@@H]2C[C@@H](OC3CCCCO3)CN2C(=O)[C@H](CCc2ccc(C(F)(F)F)c(Cl)c2)NC(=O)CN(C)C(=O)[C@H](Cc2ccc(C)cc2)N(CC)C(=O)[C@@H]2CCN2C(=O)[C@H](C)N(C)C1=O` (some centres unmarked) [PP0067] ([NMeL]I[NMeA][Aze][NEtPhe(4-Me)][Sar][hPhe(3-Cl-4-CF3)][Hyp](X45)[Ac5c][NMeGly(cPent)][NMeD]-Morpholide; lactam N-11), for which, in test [1], the “HRAS/KRAS (ratio of KD for GDP-bound HRAS wild-type to KD for KRAS)” value is “C (A compound having a KD ratio of 0.1 or more and less than 3 is denoted as C)”. In addition, the “NRAS/KRAS (ratio of KD for GDP-bound NRAS wild-type to KD for KRAS)” value in test [2] was “C (A compound having a KD ratio of 0.1 or more and less than 3 is denoted as C)”.
Turning to `CC[C@H](C)[C@@H]1NC(=O)[C@H](CC(C)C)N(C)C(=O)C[C@@H](C(=O)N2CCOCC2)N(C)C(=O)[C@H](C2CCCC2)N(C)C(=O)C2(CCCC2)NC(=O)[C@@H]2C[C@@H](OC3CCCCO3)CN2C(=O)[C@H](CCc2ccc(C(F)(F)F)c(Cl)c2)NC(=O)CN(C)C(=O)[C@H](Cc2ccc(C)cc2)N(CC)C(=O)CN(C)C(=O)CN(C)C1=O` (some centres unmarked) [PP0068] ([NMeL]I[Sar][Sar][NEtPhe(4-Me)][Sar][hPhe(3-Cl-4-CF3)][Hyp](X45)[Ac5c][NMeGly(cPent)][NMeD]-Morpholide; lactam N-11), the “HRAS/KRAS (ratio of KD for GDP-bound HRAS wild-type to KD for KRAS)” value in test [1] is “C (A compound having a KD ratio of 0.1 or more and less than 3 is denoted as C)”. For the same molecule, in test [2], the “NRAS/KRAS (ratio of KD for GDP-bound NRAS wild-type to KD for KRAS)” value is “C (A compound having a KD ratio of 0.1 or more and less than 3 is denoted as C)”.
